Data set [1] deals with T1, S-adenosyl-L-methionine:delta24-sterol-C-methyltransferase (Glycine max) (UniProt Q43445).
T1 sequence (whole entry): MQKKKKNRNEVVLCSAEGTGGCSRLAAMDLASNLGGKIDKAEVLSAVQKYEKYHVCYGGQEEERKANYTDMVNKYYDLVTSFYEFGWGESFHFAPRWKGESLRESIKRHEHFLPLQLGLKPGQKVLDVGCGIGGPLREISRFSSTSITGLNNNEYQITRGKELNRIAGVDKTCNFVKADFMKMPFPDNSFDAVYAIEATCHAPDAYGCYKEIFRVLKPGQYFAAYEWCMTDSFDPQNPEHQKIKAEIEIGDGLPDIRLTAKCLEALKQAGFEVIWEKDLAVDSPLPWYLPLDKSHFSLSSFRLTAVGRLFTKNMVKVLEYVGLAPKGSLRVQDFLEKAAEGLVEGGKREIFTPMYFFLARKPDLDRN
The data set is described as follows: Inhibition of soybean recombinant SMT expressed in Escherichia coli assessed as C-methylation in presence of 50 uM cycloartenol substrate. Details: scale not given: the % may be the effect or the level left.

Data set [2] has as its target T1, S-adenosyl-L-methionine:delta24-sterol-C-methyltransferase (Glycine max). In words: Inhibition of soybean recombinant SMT expressed in Escherichia coli assessed as C-methylation in presence of 100 uM cycloartenol substrate. Details: scale not given: the % may be the effect or the level left.
Data set [3] concerns the target T2, S-adenosyl-L-methionine:delta24-sterol-C-methyltransferase (Glycine max, UniProt Q43445).
T2 sequence (Q43445 whole entry): T1 sequence (whole entry)
In words: (§1) Inhibition of soybean recombinant SMT expressed in Escherichia coli.

Data set [4] deals with T1, S-adenosyl-L-methionine:delta24-sterol-C-methyltransferase (Glycine max). The description is as §1.
For data set [5] the target is unchanged. The data set is described as follows: Ratio of Kcat to Kinact for soybean recombinant SMT expressed in Escherichia coli.
Substrate in data set [6]: C=C/C(C)=C/CCC(C)[C@H]1CC[C@@]2(C)[C@@H]3CC[C@H]4C(C)(C)[C@@H](O)CCC45CC35CC[C@]12C
In words: (§2) Activity of soybean recombinant SMT expressed in Escherichia coli. To be noted: Glycine max.

Substrate in data set [7]: C#C/C(C)=C/CCC(C)[C@H]1CC[C@@]2(C)[C@@H]3CC[C@H]4C(C)(C)[C@@H](O)CCC45CC35CC[C@]12C
The description is as §2. As to conditions: Glycine max.

As for `C=C/C(C)=C/CCC(C)[C@H]1CC[C@@]2(C)[C@@H]3CC[C@H]4C(C)(C)[C@@H](O)CCC45CC35CC[C@]12C` (stereo partly specified), the Activity in data set [1] worked out at 25%; in data set [2] it was 45%. For the same molecule, the Ki (commonly the equilibrium dissociation constant of an inhibitor or competing ligand from its target) in data set [3] was 47 µM. The Kinact in data set [4] came to 0.24 min⁻¹. Moreover, in data set [5], the Ratio worked out at 0.001.
As for `C#C/C(C)=C/CCC(C)[C@H]1CC[C@@]2(C)[C@@H]3CC[C@H]4C(C)(C)[C@@H](O)CCC45CC35CC[C@]12C` (stereo partly specified), in data set [3], the half-maximal inhibitory concentration (IC50) – broadly, the concentration that gives 50% inhibition – was 67 µM. In addition, the Kinact in data set [4] is 0.06 min⁻¹. The Ratio in data set [5] was found to be 0.001.
On to `CC(C)SCC[C@@H](C)[C@H]1CC[C@@]2(C)[C@@H]3CC[C@H]4C(C)(C)[C@@H](O)CCC45CC35CC[C@]12C` (stereo partly specified), for which the Ki in data set [3] came to 2 µM. In data set [4], the Kinact worked out at 0.3 min⁻¹.
For `CC(C)=CCC[C@@H](C)[C@H]1CC[C@@]2(C)[C@@H]3CC[C@H]4C(C)(C)[C@@H](O)CCC45CC35CC[C@]12C` (stereo partly specified), in that order: 42 µM and 0.29 min⁻¹.

B1: S-adenosyl-L-methionine:delta24-sterol-C-methyltransferase (Glycine max), Q43445 (protein)
chain: T1 sequence (whole entry)
B1: the figures for the Michaelis-Menten constant (Km) in data set [6] and in data set [7] were 5 µM and 2 µM, respectively. Further, the kcat (as a rule, the maximal rate divided by the concentration of active sites) amounted to 5e-06 s⁻¹ in data set [6] and 8.33e-07 s⁻¹ in data set [7].

For the origin of these results see ChEMBL document CHEMBL1137496, “Inactivation of soybean sterol 24-C-methyltransferase by elongated sterol side chains at C26” (Bioorg Med Chem Lett, 2007).
